# Laboratory results reported in patent publication US9850283B2, “Macrocyclic inhibitors of the PD-1/PD-L1 and CD80(B7-1)/PD-L1 protein/protein interactions” (BRISTOL-MYERS SQUIBB COMPANY, priority 2013, dated 2017).
# Starred links: 1 amine or outer side, 2 acyl side, 3 side chain; linkers in the order of their positions; H or OH if unused. Positions of bridges follow the written chain, without caps; N, C: chain ends. Non-standard residues stand in square brackets, D forms with d. Residues, ends and D or L forms follow the SMILES beside them. *: point of attachment. Pro(trans-4-cHex) = O=C(O)[C@@H]1C[C@@H](C2CCCCC2)CN1; Pro(trans-4-Ph) = O=C(O)[C@@H]1C[C@@H](c2ccccc2)CN1; X3 = O=C([C@@H]1C[C@@H](Cc2ccc(F)cc2)CN1[*:1])[*:2]; Pro(4R-Bn) = O=C(O)[C@@H]1C[C@@H](Cc2ccccc2)CN1; Hyp = O=C(O)[C@@H]1C[C@@H](O)CN1; NMeNle = CCCC[C@H](NC)C(=O)O; NMeA = CN[C@@H](C)C(=O)O; Orn = NCCC[C@H](N)C(=O)O; Dab = NCC[C@H](N)C(=O)O; Dap = NC[C@H](N)C(=O)O; Bn = c1ccc(C*)cc1
# Key:
# Human PD-L1/PD-1 = biological target: T1, Human PD-L1/PD-1 (Homo sapiens, UniProt Q9NZQ7); experiment: HTRF PD-1-Ig/PD-L1-His binding assay (human PD-L1); settings: cluster symbol; read-out: HTRF IC50 cluster
# T1 construct: made in house; host or cells: HEK293T
# Procedure, shortened: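 Soluble PD-1-Ig binding to PD-L1-His measured by HTRF in dPBS with 0.1% BSA and 0.05% Tween-20. Detection used europium cryptate anti-Ig antibody (1 nM final) and APC anti-His antibody (20 nM final) added on top of the binding reaction.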
# [1] = biological target: T2, LK35.2-hPD-L1 cells / PE-labeled PD-1-Ig (Homo sapiens, UniProt Q9NZQ7); experiment: LK35.2-hPD-L1 cell binding high-content screening assay; type: cell-based; settings: cell binding assay, cell line not given; cluster symbol; read-out: CBA IC50 cluster
# T2 construct: expressed in transfected cells; host or cells: LK35.2 mouse B cell line
# Procedure, shortened: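 Readout: high-content imaging of PE-PD-1-Ig bound to LK35.2-hPD-L1 cells. Cells plated overnight (RPMI/10% FCS); compound + 1 nM PE-PD-1-Ig, 1 h, 37 °C; 3× dPBS wash before imaging.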
# T1 sequence (Q9NZQ7 with tags, fused parts or gaps): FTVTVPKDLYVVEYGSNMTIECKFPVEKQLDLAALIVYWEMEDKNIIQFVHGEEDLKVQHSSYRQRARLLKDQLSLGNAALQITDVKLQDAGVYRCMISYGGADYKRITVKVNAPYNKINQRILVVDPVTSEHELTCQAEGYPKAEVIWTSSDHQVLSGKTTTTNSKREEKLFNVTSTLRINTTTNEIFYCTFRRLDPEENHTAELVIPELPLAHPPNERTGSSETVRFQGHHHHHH
# T2 sequence (Q9NZQ7 19-290): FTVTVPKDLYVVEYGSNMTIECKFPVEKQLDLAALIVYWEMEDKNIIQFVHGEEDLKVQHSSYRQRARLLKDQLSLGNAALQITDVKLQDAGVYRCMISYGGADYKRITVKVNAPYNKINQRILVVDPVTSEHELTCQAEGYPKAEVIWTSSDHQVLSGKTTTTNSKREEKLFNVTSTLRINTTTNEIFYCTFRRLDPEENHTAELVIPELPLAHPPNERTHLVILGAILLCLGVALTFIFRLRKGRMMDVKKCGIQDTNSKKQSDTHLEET
SMILES,IC50 (Human PD-L1/PD-1) [nM],IC50 [1] [nM]
CCCC[C@H]1C(=O)N(C)[C@@H](CCCC)C(=O)N[C@@H](C)C(=O)N[C@H](C(=O)NCC(N)=O)CSCC(=O)N[C@@H](Cc2ccc(O)cc2)C(=O)N(C)[C@@H](C)C(=O)N[C@@H](CC(=O)O)C(=O)N2CCC[C@H]2C(=O)N[C@@H](Cc2c[nH]cn2)C(=O)N[C@@H](CCC(=O)O)C(=O)N2C[C@H](Cc3ccccc3)C[C@H]2C(=O)N[C@@H](Cc2c[nH]c3ccccc23)C(=O)N[C@@H](CCN)C(=O)N[C@@H](Cc2c[nH]c3ccccc23)C(=O)N1C [Example 13008] ({CH2CO}-Y[NMeA]DPHE[Pro(4R-Bn)]W[Dab]W[NMeNle][NMeNle]ACG-NH2; thioether N-14),0.385 to 6.74,0.158 to 4.71
CCCC[C@H]1C(=O)N(C)[C@@H](CCCC)C(=O)N[C@@H](CCCN)C(=O)N[C@H](C(=O)NCC(N)=O)CSCC(=O)N[C@@H](Cc2ccc(O)cc2)C(=O)N(C)[C@@H](C)C(=O)N[C@@H](CC(N)=O)C(=O)N2CCC[C@H]2C(=O)N[C@@H](CN)C(=O)N[C@@H](CC(C)C)C(=O)N2C[C@H](Cc3ccccc3)C[C@H]2C(=O)N[C@@H](Cc2c[nH]c3ccccc23)C(=O)N[C@@H](CO)C(=O)N[C@@H](Cc2c[nH]c3ccccc23)C(=O)N1C [Example 13009] ({CH2CO}-Y[NMeA]NP[Dap]L[Pro(4R-Bn)]WSW[NMeNle][NMeNle][Orn]CG-NH2; thioether N-14),0.385 to 6.74,0.158 to 4.71
CCCC[C@H]1C(=O)N(C)[C@@H](CCCC)C(=O)N[C@@H](CCC(=O)O)C(=O)N[C@H](C(=O)NCC(N)=O)CSCC(=O)N[C@@H](Cc2ccc(O)cc2)C(=O)N(C)[C@@H](C)C(=O)N[C@@H](CC(=O)O)C(=O)N2CCC[C@H]2C(=O)N[C@@H](Cc2c[nH]cn2)C(=O)N[C@@H](CCCCN)C(=O)N2C[C@H](Cc3ccccc3)C[C@H]2C(=O)N[C@@H](Cc2c[nH]c3ccccc23)C(=O)N[C@@H](CCCCN)C(=O)N[C@@H](Cc2c[nH]c3ccccc23)C(=O)N1C [Example 13010] ({CH2CO}-Y[NMeA]DPHK[Pro(4R-Bn)]WKW[NMeNle][NMeNle]ECG-NH2; thioether N-14),0.385 to 6.74,0.158 to 4.71
CCCC[C@H]1C(=O)N(C)[C@@H](CCCC)C(=O)N[C@@H](C)C(=O)N[C@H](C(=O)NCC(N)=O)CSCC(=O)N[C@@H](Cc2ccc(O)cc2)C(=O)N(C)[C@@H](C)C(=O)N[C@@H](CC(=O)O)C(=O)N2CCC[C@H]2C(=O)N[C@@H](Cc2c[nH]cn2)C(=O)N[C@@H](CCC(=O)O)C(=O)N2C[C@H](Cc3ccc(F)cc3)C[C@H]2C(=O)N[C@@H](Cc2c[nH]c3ccccc23)C(=O)N[C@@H](CCN)C(=O)N[C@@H](Cc2c[nH]c3ccccc23)C(=O)N1C [Example 13012] ({CH2CO}-Y[NMeA]DPHE[X3]W[Dab]W[NMeNle][NMeNle]ACG-NH2; thioether N-14),0.385 to 6.74,0.158 to 4.71
CCCC[C@H]1C(=O)N(C)[C@@H](CCCC)C(=O)N[C@@H](CCCN)C(=O)N[C@H](C(=O)NCC(N)=O)CSCC(=O)N[C@@H](Cc2ccc(O)cc2)C(=O)N(C)[C@@H](C)C(=O)N[C@@H](CC(N)=O)C(=O)N2CCC[C@H]2C(=O)N[C@@H](CN)C(=O)N[C@@H](CC(C)C)C(=O)N2C[C@H](Cc3ccc(F)cc3)C[C@H]2C(=O)N[C@@H](Cc2c[nH]c3ccccc23)C(=O)N[C@@H](CO)C(=O)N[C@@H](Cc2c[nH]c3ccccc23)C(=O)N1C [Example 13013],0.385 to 6.74,0.158 to 4.71
CCCC[C@H]1C(=O)N(C)[C@@H](CCCC)C(=O)N[C@@H](CCC(=O)O)C(=O)N[C@H](C(=O)NCC(N)=O)CSCC(=O)N[C@@H](Cc2ccc(O)cc2)C(=O)N(C)[C@@H](C)C(=O)N[C@@H](CC(=O)O)C(=O)N2CCC[C@H]2C(=O)N[C@@H](Cc2c[nH]cn2)C(=O)N[C@@H](CCCCN)C(=O)N2C[C@H](Cc3ccc(F)cc3)C[C@H]2C(=O)N[C@@H](Cc2c[nH]c3ccccc23)C(=O)N[C@@H](CCCCN)C(=O)N[C@@H](Cc2c[nH]c3ccccc23)C(=O)N1C [Example 13014] ({CH2CO}-Y[NMeA]DPHK[X3]WKW[NMeNle][NMeNle]ECG-NH2; thioether N-14),0.385 to 6.74,> 74.3

# Second part, the molecule after the results:
IC50 (Human PD-L1/PD-1) [nM],IC50 [1] [nM],SMILES
0.385 to 6.74,0.158 to 4.71,CCCC[C@H]1C(=O)N(C)[C@@H](CCCC)C(=O)N[C@@H](CCCN)C(=O)N[C@H](C(=O)NCC(N)=O)CSCC(=O)N[C@@H](Cc2ccc(O)cc2)C(=O)N(C)[C@@H](C)C(=O)N[C@@H](CC(N)=O)C(=O)N2CCC[C@H]2C(=O)N[C@@H](CN)C(=O)N[C@@H](CC(C)C)C(=O)N2C[C@H](c3ccccc3)C[C@H]2C(=O)N[C@@H](Cc2c[nH]c3ccccc23)C(=O)N[C@@H](CO)C(=O)N[C@@H](Cc2c[nH]c3ccccc23)C(=O)N1C [Example 14001] ({CH2CO}-Y[NMeA]NP[Dap]L[Pro(trans-4-Ph)]WSW[NMeNle][NMeNle][Orn]CG-NH2; thioether N-14)
0.385 to 6.74,0.158 to 4.71,CCCC[C@H]1C(=O)N(C)[C@@H](CCCC)C(=O)N[C@@H](CCC(=O)O)C(=O)N[C@H](C(=O)NCC(N)=O)CSCC(=O)N[C@@H](Cc2ccc(O)cc2)C(=O)N(C)[C@@H](C)C(=O)N[C@@H](CC(=O)O)C(=O)N2CCC[C@H]2C(=O)N[C@@H](Cc2c[nH]cn2)C(=O)N[C@@H](CCCCN)C(=O)N2C[C@H](c3ccccc3)C[C@H]2C(=O)N[C@@H](Cc2c[nH]c3ccccc23)C(=O)N[C@@H](CCCCN)C(=O)N[C@@H](Cc2c[nH]c3ccccc23)C(=O)N1C [Example 14002] ({CH2CO}-Y[NMeA]DPHK[Pro(trans-4-Ph)]WKW[NMeNle][NMeNle]ECG-NH2; thioether N-14)
0.385 to 6.74,0.158 to 4.71,CCCC[C@H]1C(=O)N(C)[C@@H](CCCC)C(=O)N[C@@H](CCCN)C(=O)N[C@H](C(=O)NCC(N)=O)CSCC(=O)N[C@@H](Cc2ccc(O)cc2)C(=O)N(C)[C@@H](C)C(=O)N[C@@H](CC(N)=O)C(=O)N2CCC[C@H]2C(=O)N[C@@H](CN)C(=O)N[C@@H](CC(C)C)C(=O)N2C[C@H](OCc3ccccc3)C[C@H]2C(=O)N[C@@H](Cc2c[nH]c3ccccc23)C(=O)N[C@@H](CO)C(=O)N[C@@H](Cc2c[nH]c3ccccc23)C(=O)N1C [Example 14003] ({CH2CO}-Y[NMeA]NP[Dap]L[Hyp](Bn)WSW[NMeNle][NMeNle][Orn]CG-NH2; thioether N-14)
0.385 to 6.74,0.158 to 4.71,CCCC[C@H]1C(=O)N(C)[C@@H](CCCC)C(=O)N[C@@H](CCC(=O)O)C(=O)N[C@H](C(=O)NCC(N)=O)CSCC(=O)N[C@@H](Cc2ccc(O)cc2)C(=O)N(C)[C@@H](C)C(=O)N[C@@H](CC(=O)O)C(=O)N2CCC[C@H]2C(=O)N[C@@H](Cc2c[nH]cn2)C(=O)N[C@@H](CCCCN)C(=O)N2C[C@H](OCc3ccccc3)C[C@H]2C(=O)N[C@@H](Cc2c[nH]c3ccccc23)C(=O)N[C@@H](CCCCN)C(=O)N[C@@H](Cc2c[nH]c3ccccc23)C(=O)N1C [Example 14004] ({CH2CO}-Y[NMeA]DPHK[Hyp](Bn)WKW[NMeNle][NMeNle]ECG-NH2; thioether N-14)
0.385 to 6.74,0.158 to 4.71,CCCC[C@H]1C(=O)N(C)[C@@H](CCCC)C(=O)N[C@@H](CCN)C(=O)N[C@H](C(=O)NCC(N)=O)CSCC(=O)N[C@@H](Cc2ccc(O)cc2)C(=O)N(C)[C@@H](C)C(=O)N[C@@H](CC(N)=O)C(=O)N2CCC[C@H]2C(=O)N[C@@H](Cc2c[nH]cn2)C(=O)N[C@@H](CCC(=O)O)C(=O)N2C[C@H](C3CCCCC3)C[C@H]2C(=O)N[C@@H](Cc2c[nH]c3ccccc23)C(=O)N[C@@H](CCN)C(=O)N[C@@H](Cc2c[nH]c3ccccc23)C(=O)N1C [Example 14005] ({CH2CO}-Y[NMeA]NPHE[Pro(trans-4-cHex)]W[Dab]W[NMeNle][NMeNle][Dab]CG-NH2; thioether N-14)
0.385 to 6.74,0.158 to 4.71,CCCC[C@H]1C(=O)N(C)[C@@H](CCCC)C(=O)N[C@@H](CCCN)C(=O)N[C@H](C(=O)NCC(N)=O)CSCC(=O)N[C@@H](Cc2ccc(O)cc2)C(=O)N(C)[C@@H](C)C(=O)N[C@@H](CC(N)=O)C(=O)N2CCC[C@H]2C(=O)N[C@@H](CN)C(=O)N[C@@H](CC(C)C)C(=O)N2C[C@H](C3CCCCC3)C[C@H]2C(=O)N[C@@H](Cc2c[nH]c3ccccc23)C(=O)N[C@@H](CO)C(=O)N[C@@H](Cc2c[nH]c3ccccc23)C(=O)N1C [Example 14007] ({CH2CO}-Y[NMeA]NP[Dap]L[Pro(trans-4-cHex)]WSW[NMeNle][NMeNle][Orn]CG-NH2; thioether N-14)
0.385 to 6.74,0.158 to 4.71,CCCC[C@H]1C(=O)N(C)[C@@H](CCCC)C(=O)N[C@@H](CCC(=O)O)C(=O)N[C@H](C(=O)NCC(N)=O)CSCC(=O)N[C@@H](Cc2ccc(O)cc2)C(=O)N(C)[C@@H](C)C(=O)N[C@@H](CC(=O)O)C(=O)N2CCC[C@H]2C(=O)N[C@@H](Cc2c[nH]cn2)C(=O)N[C@@H](CCCCN)C(=O)N2C[C@H](C3CCCCC3)C[C@H]2C(=O)N[C@@H](Cc2c[nH]c3ccccc23)C(=O)N[C@@H](CCCCN)C(=O)N[C@@H](Cc2c[nH]c3ccccc23)C(=O)N1C [Example 14008] ({CH2CO}-Y[NMeA]DPHK[Pro(trans-4-cHex)]WKW[NMeNle][NMeNle]ECG-NH2; thioether N-14)
